Reference: patent US20250353912A1, “COMPOSITIONS AND METHODS COMPRISING ANTIBODIES THAT BIND TO COVALENT PEPTIDE CONJUGATES” (New York University, priority 2022, published 2025)

How the values were obtained:
H2122 cells = assay: Cell viability following exposure to sotorasib for 72 hr; format: cell-based; conditions: FIG. 43A
H358 cells = assay: as above; format: cell-based; conditions: 0.1 μM sotorasib, FIG. 43A
[1] = cited from earlier work
[2] = second line disease, versus docetaxel

Compound: C=CC(=O)N1CCN(c2nc(=O)n(-c3c(C)ccnc3C(C)C)c3nc(-c4c(O)cccc4F)c(F)cc23)[C@@H](C)C1 [sotorasib]
- sotorasib concentration up to which H2122 is resistant (H2122 cells): ~10 µM
- killing of H358 cells (H358 cells): nearly all of the H358 cells were killed
- patients removed from the study because of liver toxicity ([1]; in vivo): six patients
- patients with drug-induced liver injury ([1]; in vivo): two patients
- patients with grade 3/4 liver toxicity ([1]; in vivo): 10%
- overall survival [1, 2]: no impact
- progression-free survival [1, 2]: improved by one month
